Test results from PMC10052868 (European journal of medicinal chemistry, 2022).

Legend:
[1] = biological target: PfPK6 (Plasmodium falciparum, UniProt Q8IDW1); assay: KinaseSeeker split-luciferase assay on PfPK6; format: binding, P. falciparum; conditions: for remaining activity at 1 µM: read-out: PfPK6 activity remaining at 1 μM (%)
[2] = system: P. falciparum 3D7; assay: P. falciparum asexual blood stage viability assay; format: cell-based; conditions: for fold improvement in P. falciparum blood stage potency on adding CF3 or OCF3: compared to parent compound without meta group (64, 66, 67 or 68)
[3] = biological target: PfCDPK5 (Plasmodium falciparum, UniProt A0A5K1K8H0); assay: KinaseSeeker assay on PfCDPK5; format: binding, P. falciparum
Chain of PfCDPK5 (A0A5K1K8H0 whole entry): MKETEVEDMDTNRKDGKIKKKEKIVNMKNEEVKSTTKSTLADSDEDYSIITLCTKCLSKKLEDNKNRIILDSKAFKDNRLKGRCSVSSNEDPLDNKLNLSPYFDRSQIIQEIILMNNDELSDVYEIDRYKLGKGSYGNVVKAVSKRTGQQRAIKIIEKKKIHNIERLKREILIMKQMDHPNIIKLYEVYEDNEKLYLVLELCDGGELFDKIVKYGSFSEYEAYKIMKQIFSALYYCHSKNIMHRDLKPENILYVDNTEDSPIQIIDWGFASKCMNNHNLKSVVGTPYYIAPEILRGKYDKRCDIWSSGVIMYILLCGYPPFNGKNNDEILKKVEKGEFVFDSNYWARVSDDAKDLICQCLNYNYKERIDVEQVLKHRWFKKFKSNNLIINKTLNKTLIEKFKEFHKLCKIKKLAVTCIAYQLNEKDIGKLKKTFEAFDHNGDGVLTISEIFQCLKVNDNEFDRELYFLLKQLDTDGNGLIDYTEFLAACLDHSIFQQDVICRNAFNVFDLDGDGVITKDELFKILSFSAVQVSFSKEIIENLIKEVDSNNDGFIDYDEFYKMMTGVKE

[4] = biological target: PfGSK3 (Plasmodium falciparum, UniProt O77344); assay: KinaseSeeker assay on PfGSK3; format: binding, P. falciparum
[5] = biological target: T1, PfNEK3 (Plasmodium falciparum, UniProt Q8I629); assay: KinaseSeeker assay on PfNEK3; format: binding, P. falciparum
T1 sequence (Q8I629 1-347): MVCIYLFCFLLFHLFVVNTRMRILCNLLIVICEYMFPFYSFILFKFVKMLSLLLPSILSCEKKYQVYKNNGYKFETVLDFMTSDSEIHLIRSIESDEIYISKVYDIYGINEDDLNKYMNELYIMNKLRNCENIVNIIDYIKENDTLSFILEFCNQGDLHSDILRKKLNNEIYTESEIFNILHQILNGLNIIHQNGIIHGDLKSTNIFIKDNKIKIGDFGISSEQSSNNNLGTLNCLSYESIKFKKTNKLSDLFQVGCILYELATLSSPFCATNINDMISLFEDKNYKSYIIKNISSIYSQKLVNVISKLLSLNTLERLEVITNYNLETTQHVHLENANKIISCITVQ

[6] = biological target: PfPKB (Plasmodium falciparum, UniProt Q8I4W3); assay: KinaseSeeker assay on PfPKB; format: binding, P. falciparum
[7] = system: panel of 468 kinases (403 non-mutant kinases); format: binding, human; conditions: for number of non-mutant kinases inhibited with ≤1% control: 1 μM, out of 403 non-mutant kinases
[8] = system: P. berghei ANKA; assay: P. berghei liver stage parasite load assay in HepG2 cells; format: cell-based; conditions: for P. berghei liver stage activity in words: inactive = EC50 not reported because <5-fold difference between observed EC50 and HepG2 CellTiter-Fluor cytotoxicity; for fold difference between P. berghei EC50 and CellTiter-Fluor CC50: HepG2 host cells
[9] = system: PfARK3; assay: KinaseSeeker assay on PfARK3; format: binding, P. falciparum; conditions: duplicate
[10] = system: PfNEK1; assay: KinaseSeeker assay on PfNEK1; format: binding, P. falciparum; conditions: duplicate
[11] = biological target: PfPK5 (Plasmodium falciparum, UniProt P61075); assay: KinaseSeeker assay on PfPK5; format: binding, P. falciparum; conditions: read-out: PfPK5 % Activity remaining at 1 μM
Chain of PfPK5 (P61075 whole entry): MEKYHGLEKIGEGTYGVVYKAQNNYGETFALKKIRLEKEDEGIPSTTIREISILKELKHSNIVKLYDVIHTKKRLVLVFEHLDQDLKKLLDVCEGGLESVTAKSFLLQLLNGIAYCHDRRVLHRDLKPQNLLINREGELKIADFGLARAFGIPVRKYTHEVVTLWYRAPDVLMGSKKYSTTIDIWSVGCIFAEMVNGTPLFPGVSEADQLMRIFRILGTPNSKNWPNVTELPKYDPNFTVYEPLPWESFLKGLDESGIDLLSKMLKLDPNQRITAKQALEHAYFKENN

[12] = system: PfPK9; assay: KinaseSeeker assay on PfPK9; format: binding, P. falciparum; conditions: duplicate
[13] = system: PfARK1; assay: KinaseSeeker assay on PfARK1; format: binding, P. falciparum; conditions: duplicate
[14] = GE = −ΔΔG / Δ(no. of heavy atoms), PfPK6 inhibition

## COc1cc2nccc(Oc3ccc(NC(=O)Nc4cc(C(F)(F)F)ccc4F)c(F)c3)c2cc1OC [Compound 40, 1-(4-((6,7-dimethoxyquinolin-4-yl)oxy)-2-fluorophenyl)-3-(2-fluoro-5-(trifluoromethyl)phenyl)urea]
[1]
  IC50: < 5 nM
[2]; Inactive = no inhibition when tested up to 5 μM in two experiments, dose-response
  Pf3D7 blood stage activity in dose-response: Inactive^d

## COc1cc2nccc(Oc3ccc(NC(=O)Nc4ccc(CN5CCN(C)CC5)c(C(F)(F)F)c4)c(F)c3)c2cc1OC [Compound 45, 1-(4-((6,7-dimethoxyquinolin-4-yl)oxy)-2-fluorophenyl)-3-(4-((4-methylpiperazin-1-yl)methyl)-3-(trifluoromethyl)phenyl)urea diformate]
[3]
  IC50: 40 to 144 nM
[4]
  IC50: 40 to 144 nM
[5]
  IC50: 40 to 144 nM
[6]
  IC50: 40 to 144 nM
[7]
  number of non-mutant kinases inhibited with ≤1% control: 134

## COc1cc2nccc(Oc3ccc(NC(=O)Nc4ccc(CC5CCNCC5)cc4)c(F)c3)c2cc1OC [Compound 67, 1-(4-((6,7-dimethoxyquinolin-4-yl)oxy)-2-fluorophenyl)-3-(4-(piperidin-4-ylmethyl)phenyl)urea]
[1]
  remaining activity at 1 µM: 2%
[8]
  P. berghei liver stage activity in words: inactive^g
[9]
  PfARK3 % Activity remaining at 1 μM: 100%
[10]
  PfNEK1 % Activity remaining at 1 μM: 100%
[7]
  number of non-mutant kinases inhibited with ≤1% control: 22

## COc1cc2nccc(Oc3ccc(NC(=O)Nc4ccc(C=C5CCNCC5)cc4)c(F)c3)c2cc1OC [Compound 68, 1-(4-((6,7-dimethoxyquinolin-4-yl)oxy)-2-fluorophenyl)-3-(4-(piperidin-4-ylidenemethyl)phenyl)urea]
[1]
  remaining activity at 1 µM: 1%
[2]; compared to 41
  fold improvement in P. falciparum blood stage inhibitory activity over 41: approximately 4 fold
[8]
  fold difference between P. berghei EC50 and CellTiter-Fluor CC50: 1.9 fold
  P. berghei liver stage activity in words: inactive^g
[9]
  PfARK3 % Activity remaining at 1 μM: 100%
[10]
  PfNEK1 % Activity remaining at 1 μM: 100%
[11]
  remaining activity at 1 µM: 100%
[12]
  PfPK9 % Activity remaining at 1 μM: 100%

## COc1cc2nccc(Oc3ccc(NC(=O)Nc4ccc(OC5CCN(C)CC5)c(C(F)(F)F)c4)c(F)c3)c2cc1OC [Compound 75, 1-(4-((6,7-dimethoxyquinolin-4-yl)oxy)-2-fluorophenyl)-3-(4-((1-methylpiperidin-4-yl)oxy)-3-(trifluoromethyl)phenyl)urea]
[1]
  remaining activity at 1 µM: 0%
[2]
  fold improvement in P. falciparum blood stage potency on adding CF3 or OCF3: 8 fold
[8]
  fold difference between P. berghei EC50 and CellTiter-Fluor CC50: 1.9 fold
  P. berghei liver stage activity in words: inactive^g
[10]
  PfNEK1 % Activity remaining at 1 μM: 100%

## COc1cc2nccc(Oc3ccc(NC(=O)Nc4ccc(CC5CCNCC5)c(C(F)(F)F)c4)c(F)c3)c2cc1OC [Compound 79, 1-(4-((6,7-dimethoxyquinolin-4-yl)oxy)-2-fluorophenyl)-3-(4-(piperidin-4-ylmethyl)-3-(trifluoromethyl)phenyl)urea]
[1]
  IC50: < 5 nM
  remaining activity at 1 µM: 1%
[13]
  PfARK1 % Activity remaining at 1 μM: 100%
[10]
  PfNEK1 % Activity remaining at 1 μM: 100%

## COc1cc2nccc(Oc3ccc(NC(=O)Nc4ccc(C=C5CCNCC5)c(OC(F)(F)F)c4)c(F)c3)c2cc1OC [Compound 82, 1-(4-((6,7-dimethoxyquinolin-4-yl)oxy)-2-fluorophenyl)-3-(4-(piperidin-4-ylidenemethyl)-3-(trifluoromethoxy)phenyl)urea]
[2]
  fold improvement in P. falciparum blood stage potency on adding CF3 or OCF3: 2 fold

## COc1cc2nccc(Oc3ccc(NC(=O)Nc4ccc(F)cc4F)c(F)c3)c2cc1OC [Ki8751, reference compound]
[1]; [14]
  group efficiency (GE) of the 7-methoxy group: 0.81 ± 0.04
  group efficiency (GE) of the entire urea group: 0.39 ± 0.02
  group efficiency (GE) of the tail phenyl ring: > 0.41 ± 0.005
[7]
  number of non-mutant kinases inhibited with ≤1% control: 16
[7]; KINOMEscan, 403 non-mutant kinases
  selectivity score S1 (1 μM): 0.040
